Results as given in patent US20240358678A1, “METHODS AND COMPOSITIONS FOR ENHANCING CHEMOTHERAPEUTIC DRUG UPTAKE INTO BRAIN TUMORS” (Brown University, priority 2023, published 2024).
Entries after “also recorded” stand apart in the source; their conditions may differ.

Columns and labels:
HCMEC/D3 cells [1] = test: Flow cytometry of late apoptosis by Sytox Blue staining; format: cell-based, human; details: any of the used BIA doses, 72 hours, vs cisplatin control
Protocol: For apoptosis assessment, […]3 cells were treated as indicated above for 72 hours with BIA at indicated doses. Cells were collected from the 6-well plates and washed three times with PBS. Then, incubated with SYTOXTM Blue nucleic acid stain (5 mM) with a dilution of 1:1000 for 15 minutes. Cells were submitted and analyzed in the CytoFLEX system and its software as indicated above.

HCMEC/D3 cells [2] = test: Cell cycle analysis via flow cytometry of HCMEC/D3; format: cell-based, human; details: BIA 0.5 μM or 1 μM
Protocol: Flow cytometry for cell cycle, DNA damage and apoptosis assays: For cell cycle analysis, 100,000 HCMEC/D3 cells were plated in 6-well plates and treated with indicated concentrations of BIA or control for 48 hours. Then, cells were washed twice with PBS and fixed/permeabilized with 5 mL of cold 70% ethanol added dropped-wise while vortexing at low speed. Cells were stored for 1 day at −20 degrees Celsius, washed three times with PBS and treated with 20 μg/mL RNAse I (Thermo Fisher Scientific) and stained with anti-Ki-67 FITC-conjugated (1:1000) (BD Biosystems) and 1.5 μM propidium iodide (Thermo Fisher Scientific). Amer 30 minutes of incubation in the dark, cells were analyzed using a CytoFLEX system (Beckman Coulter). 50,000 events were counted, and data was analyzed using the CytoFLEX system software (Beckman Coulter).

HCMEC/D3 cells [3] = test: Bulk RNA-sequencing of HCMEC/D3 cells treated with BIA; format: cell-based, human
Protocol: RNA-sequencing of HCMEC/D3 cells treated with BIA: For RNA-sequencing, HCMEC/D3 cells were plated at a density of 500,000 cells/well in a 6-well plate. Left to grow for 24 hours, and then treated with 1 μM of BIA or DMSO (control). After 24 hours, cells were collected and processed for RNA extraction using the column-based RNeasy kit (QIAGEN), following provider's instructions. RNA quality and quantity were quantified using a Nanodrop™ One (Invitrogen). At least 500 ng of RNA was submitted for bulk RNA-sequencing at GeneWiz (Azenta Life Sciences). QC was accessed, and library was prepared with Poly(A) selection. Sequencing was performed using Illumina HiSeq.
Differential gene expression on the RNA-seq raw data (FASTQ files) was analyzed by Azenta Life Sciences using DESeq2 aligning to human transcriptome. Data QC was verified. Log2 fold change (Log 2FC) was calculated by Log2 (BIA group mean normalized counts/Control group mean normalized counts). The Wald test p-value and Benjamini-Hochberg adjusted p-value were calculated. A heatmap and volcano plot of top adjusted p-value differentially expressed genes (DEGs) in ensemble ID annotation bi-clustering to treatment conditions were generated. Control and BIA groups consisted of three-independent samples.

BBB spheroids = BBB spheroids staining and dextran permeability assay; format: cell-based, human; details: BIA 72 hours
Protocol: BBB spheroids and dextran permeability assay: BBB spheroids were grown and cultured with a FITC-conjugated (70 kDa) fluorescent dextran (Millipore Sigma) as previously reported.^51,86,87 BBB spheroids were grown for 48 hours and then treated with BIA at increasing doses for 72 hours. Then, spheroids were collected and stained as indicated above for CDH5 and F-actin (Phalloidin). In the case of fluorescent dextran incubation, BBB spheroids were collected in 1.5 mL microtubes (Eppendorf) and incubated for 3 hours at 37 degrees Celsius. Pictures were taken by confocal microscopy. For dextran permeability measurement, 21 images using Z-stack layers of 5 μm intervals for achieving a total depth of 100 μm within the sphere. Fluorescent-dextran intensity from maximal intensity projection was quantified using Image J (National Institute of Health).

[4] = tested on: patient-derived GBM neuro-spheres; test: GBM neuro-sphere cell viability assay (Cell-Titer Glo 3D), BIA and cisplatin; format: cell-based, human; details: BIA 1 μM, 5 days
Protocol: Cell viability assay: Cells were plated at a density of 1500 cells/well in black-well clear bottom 96-well plates and left growing in culture conditions overnight. Next day, cells were treated with titrating doses of the indicated compounds. For BIA only cytotoxicity studies, cells were incubated with BIA for 96 hours. For BIA and cisplatin combinatorial studies, cells were incubated with BIA and cisplatin, and corresponding controls, for 5 days. Next, we used the Cell-Titer Glo 3D (Promega) following provider's guidelines and quantified for luminescence signal using a Molecular Devices SpectraMax M2 plate reader. Conditions were repeated in triplicates.

HCMEC/D3 cells [5] = test: Visual assessment (brightfield) of HCMEC/D3 cells; format: cell-based, human; details: BIA 72 hours; elongated phenotype with long filipodia
G30 tumors = test: DCE-MRI analysis of blood flow within a murine glioblastoma (k-trans); format: in vivo, mouse; details: 24 hours after BiA 10 mg/kg IP vs pretreatment
Protocol: Magnetic Resonance Imaging (MRI): MRI was performed at the BWH Imaging Core on a 7T Bruker MRI apparatus. G30 tumors were implanted (50,000 cells per mouse) intracranially into the striatum using a stereotactic frame. After three weeks of tumor growth, MRI images were collected according to BWH Imaging Core protocols using Gadolinium contrast enhancement. After the first image was collected, BiA was administered IP at 10 mg/kg), and imaging were performed again.
The present study investigated whether the indirubin derivative, BiA (see FIG. 1A and FIG. 1B), can disrupt the permeability of the BTB. Blood flow within a murine glioblastoma was assessed using dynamic contrast-enhanced magnetic resonance imaging (DCE-MRI) analysis and as measured by k^trans.
K^trans is calculated by measuring the accumulation of gadolinium-based contrast agent in the extravascular-extracellular space. Interpretation of k^trans varied according to permeability and blood flow. In situations where permeability is very low (near-intact blood brain barrier), then k^trans is a useful measure of permeability, whereas in situations where permeability is very high (disrupted blood brain barrier), then k^trans will reflect perfusion.

CC(=O)ON=C1C(=C2C(=O)Nc3cc(Br)ccc32)Nc2ccccc21 [BIA, 6-bromoindirubin acetoxime]
late apoptosis/necrosis (HCMEC/D3 cells [1]): did not show late apoptosis/necrosis | cell cycle states (HCMEC/D3 cells [2]): slight decreased G1 and M states | ERG expression (HCMEC/D3 cells [3]): downregulation of ERG | expression of WNT4, WNT10A and WNT11 ligands (HCMEC/D3 cells [3]): increase of expression | expression of WNT7B and WNT ligand receptors FZD4 and FZD7 (HCMEC/D3 cells [3]): decrease | CDH5 gene expression change upon BIA treatment (HCMEC/D3 cells [3]; BIA 1 μM, 24 hrs): −3.06 fold, log 2 | PCDH12 expression (HCMEC/D3 cells [3]; BIA 1 μM, 24 hrs): increased its expression | expression of PHGDH, AXIN2, TCF7, VLDLR and VEGFA (HCMEC/D3 cells [3]; BIA 1 μM, 24 hrs): promoted expression | expression of angiogenesis-related genes MMRN2, CD93, ACVRL1, KDR, SMAD6 and S1PR3 (HCMEC/D3 cells [3]; BIA 1 μM, 24 hrs): downregulated | significantly downregulated differentially expressed genes (HCMEC/D3 cells [3]; BIA 1 μM, 24 hrs): 652 genes | significantly upregulated differentially expressed genes (HCMEC/D3 cells [3]; BIA 1 μM, 24 hrs): 862 genes | BTB-genes modulated by BIA (HCMEC/D3 cells [3]; of the 12 BTB-genes of the in-silico screening): 8 of the 12 | CDH5 expression in BBB spheroids (IF) (BBB spheroids): decreased the expression of CDH5 in a dose-dependent manner | F-actin in BBB spheroids (Phalloidin) (BBB spheroids): reduced considerably | FITC-dextran (70 kDa) permeability of BBB spheroids (BBB spheroids; dextran 3 hours): dose-dependent increase in permeability | cell viability, BIA single-treatment [4]: reduced the cell viability of cells mildly | signs of apoptosis or necrosis by visual assessment (HCMEC/D3 cells [5]): did not show signs of apoptosis or necrosis | k-trans values in murine glioblastoma (G30 tumors): significantly increased; also recorded: increased perfusion
